From patent publication US20200039970A1, “HYDANTOIN MODULATORS OF KV3 CHANNELS” (Autifony Therapeutics Limited, priority 2016, published 2020)

How the values were obtained:
[1] = target: T1, human Kv3.1 channels (hKv3.1) (Homo sapiens, UniProt P48547); assay: IonWorks Quattro whole-cell current potentiation assay, hKv3.1 (Biological Example 1); format: cell-based; conditions: recombinant cell assay, -15 mV voltage step; positive modulator = at least 20% of effect of 50 microM reference compound
T1 construct: expressed in transfected cells; host or cells: CHO/Gam/E1A-clone22 (CGE22) cells, CHO-K1-derived, transduced with BacMam pFBM/human Kv3.1
T1 sequence (P48547 1-511): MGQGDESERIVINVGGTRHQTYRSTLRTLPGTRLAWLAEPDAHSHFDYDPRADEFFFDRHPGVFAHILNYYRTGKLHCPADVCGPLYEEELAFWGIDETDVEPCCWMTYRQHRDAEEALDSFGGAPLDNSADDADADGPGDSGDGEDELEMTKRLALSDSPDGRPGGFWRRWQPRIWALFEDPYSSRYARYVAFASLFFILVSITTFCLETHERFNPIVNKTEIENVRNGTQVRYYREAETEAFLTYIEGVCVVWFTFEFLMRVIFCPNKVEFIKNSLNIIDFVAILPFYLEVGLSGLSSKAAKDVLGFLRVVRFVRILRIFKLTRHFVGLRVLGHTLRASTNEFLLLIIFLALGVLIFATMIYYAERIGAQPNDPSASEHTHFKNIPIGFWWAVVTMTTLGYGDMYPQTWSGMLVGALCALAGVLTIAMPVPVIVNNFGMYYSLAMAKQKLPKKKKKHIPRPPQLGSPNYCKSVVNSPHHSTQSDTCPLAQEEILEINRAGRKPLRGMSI
From the text: (§1) The ability of the compound of the invention to modulate the voltage-gated potassium channel subtypes Kv3.2 or Kv3.1 may be determined using the following assay. Analogous methods may be used to investigate the ability of the compound of the invention to modulate other channel subtypes, including Kv3.3 and Kv3.4.
To assess compound effects on human Kv3.1 channels (hKv3.1), CHO/Gam/E1A-clone22 alias CGE22 cells were transduced using a hKv3.1 BacMam reagent. This cell line was designed to be an improved CHO-K1-based host for enhanced recombinant protein expression as compared to wild type CHO-K1.
The cell line was generated following the transduction of CHO-K1 cells with a BacMam virus expressing the Adenovirus-Gam1 protein and selection with Geneticin-G418, to generate a stable cell line, CHO/Gam-A3. […]
(§2) Experiments were conducted at room temperature using IonWorks Quattro™ planar array electrophysiology technology (Molecular Devices Corp.) with PatchPlate™ PPC. […] Planar electrode hole resistances(Rp) were determined by applying a 10 mV voltage step across each well. […] Test pulses protocol may be performed in the absence (pre-read) and presence (post-read) of the test compound. Pre- and post-reads may be separated by the compound addition followed by a 3 minute incubation. […]

[2] = target: T2, human Kv3.2 channels (hKv3.2) (Homo sapiens, UniProt Q96PR1); assay: IonWorks Quattro whole-cell current potentiation assay, hKv3.2 (Biological Example 1); format: cell-based; conditions: recombinant cell assay, -15 mV voltage step; positive modulator = at least 20% of effect of 50 microM reference compound
T2 construct: expressed in transfected cells
T2 sequence (Q96PR1 1-638): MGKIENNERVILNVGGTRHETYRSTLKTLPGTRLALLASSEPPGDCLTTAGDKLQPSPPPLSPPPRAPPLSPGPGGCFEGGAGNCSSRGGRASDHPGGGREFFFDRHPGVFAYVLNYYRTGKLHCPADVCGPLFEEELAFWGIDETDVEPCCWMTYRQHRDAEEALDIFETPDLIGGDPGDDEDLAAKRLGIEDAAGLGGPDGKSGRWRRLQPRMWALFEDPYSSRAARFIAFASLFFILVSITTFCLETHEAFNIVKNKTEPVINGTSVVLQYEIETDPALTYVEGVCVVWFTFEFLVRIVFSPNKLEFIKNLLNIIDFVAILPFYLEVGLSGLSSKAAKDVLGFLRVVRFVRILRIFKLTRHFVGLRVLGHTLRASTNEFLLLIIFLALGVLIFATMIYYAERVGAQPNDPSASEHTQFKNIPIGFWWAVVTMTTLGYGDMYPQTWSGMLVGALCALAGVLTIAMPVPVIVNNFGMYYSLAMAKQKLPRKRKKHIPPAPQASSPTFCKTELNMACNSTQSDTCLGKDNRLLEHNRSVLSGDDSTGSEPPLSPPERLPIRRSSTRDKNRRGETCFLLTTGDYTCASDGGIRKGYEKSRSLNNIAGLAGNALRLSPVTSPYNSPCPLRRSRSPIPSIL
From the text: as §1
To assess compound effects on human Kv3.2 channels (hKv3.2), a stable cell line expressing hKv3.2 was created by transfecting Chinese Hamster Ovary (CHO)-K1 cells with a pClH5-hKv3.2 vector. Cells were cultured in DMEM/F12 medium supplemented by 10% Foetal Bovine Serum, 1× non-essential amino acids (Invitrogen) and 500 ug/ml of Hygromycin-B (Invitrogen). Cells were grown and maintained at 37° C. in a humidified environment containing 5% CO2 in air.
The day of the experiment, cells were removed from the incubator and the culture medium removed. […]
as §2

[3] = Determination of in vivo pharmacokinetic parameters (Biological Example 3); parameters: species or system rat; conditions: for Tmax: Median
Experimental: […] After oral administration, blood samples are collected under deep Isofluorane anesthesia from the portal vein and heart of each rat (1 rat per time point). After intravenous administration, serial blood samples are collected from the lateral tail vein of each rat. A further group of rats (n=1 per test compound) receive a single intravenous administration of the PgP transport inhibitor, Elacridar (3 mg/kg) shortly before the oral administration of the test compound at 1 mg/kg, as above. Blood and brain samples ar collected at a single timepoint of 0.5 h after dose administration for these animals. In all cases, blood samples are collected into potassium EDTA tubes.
Blood and brain samples can be assayed for test compound concentration using a method based on protein precipitation with acetonitrile followed by HPLC/MS-MS analysis with an optimized analytical method.
The concentrations of test compound in blood (expressed as ng/ml) and brain (expressed as ng/g) at the different time points following either oral or intravenous dosing are analysed using a non-compartmental pharmacokinetic model using WinNonLin Professional version 4.1. The following parameters are derived:
Intravenous dosing: Maximum concentration over time (Cmax), integrated concentration over time (AUC), clearance (Clb), volume of distribution (Vss) and half-life (t1/2).
Oral dosing: Cmax, time of maximum concentration (Tmax), AUC, bioavailability (F %), fraction absorbed (Fa %), blood to brain ratio (AUC BB), and Fold-change in AUC BB in the presence of Elacridar.

[4] = male, rat, whole blood, Blood, IV 1 mg/kg, Mean
[5] = male, rat, whole blood, Blood, PO 3 mg/kg, Mean

## CC[C@H]1NC(=O)N(c2ccc(Oc3ccc(C)c4c3C3(CC3)CO4)cn2)C1=O [compound of the invention]
[1]
  modulation of Kv3.1 channels (whole-cell currents): positive modulators
[2]
  modulation of Kv3.2 channels (whole-cell currents): positive modulators
[3]; Blood, PO 3 mg/kg vs IV 1 mg/kg
  Bioavailability (%) Using AUCinf: 138%
[3]; in vivo pharmacokinetics
  availability: good availability
[3]; [4]
  AUC(0-inf): 353 ng·h/mL
  Cmax: 904 ng/mL
  clearance: 47.6 mL/min/kg
  half-life: 15.6 min
[3]; male, rat, whole blood, Blood, IV 1 mg/kg, Mean, read-out: Vdss
  Vd: 1 L/kg
[3]; male, rat, whole blood, Blood, IV 1 mg/kg
  Tmax: 4.98 min
[3]; [5]
  AUC(0-inf): 1440 ng·h/mL
  Cmax: 1660 ng/mL
  half-life: 24.6 min
[3]; male, rat, whole blood, Blood, PO 3 mg/kg
  Tmax: 15 min
